Results on six compounds are retold here after US20250170090A1, “METHOD FOR PREVENTING OR TREATING DISEASE OR DISORDER ASSOCIATED WITH ANTINEOPLASTIC AGENT” (ONQUALITY PHARMACEUTICALS CHINA LTD., priority 2022, published 2025).

Where two headings read alike, the source gives them in different places.

Test [1] has as its system anti-tumor agent-induced hand-foot syndrome. Description: Comparison of different mechanism compounds in preventing sorafenib-induced hand-foot syndrome in rats (Table 6). It counts as in vivo. The settings on record: Sorafenib 80 mg/kg once a day, Days 15. The protocol:
After the rats (about 200 g) were acclimated for one week, they were divided into groups of 10 and then subjected to gavage administration experiments. The anti-tumor agent (the anti-tumor agent modeled by sorafenib) was dissolved in a mixed solution of Cremophor EL:ethanol=1:1, and diluted to the required concentration with PBS (diluted about 3 times with PBS solution) before gavage administration. After gavage, the hind paws of the rats were treated with ointments of different mechanisms (NO-releasing agent group, NO-releasing agent combined with clinical drug group, NSAID group), while the control group was treated with a blank ointment. After the application of the ointment, the rats were placed in a fixed cylinder for 4 hours. After 4 hours, the rats were released, and the residual drugs in the application site were wiped off with clean water, and the rats were returned to the cage. Different treatment groups were only applied once a day. Gavage and ointment application were repeated every day until the end of the experiment.
Table 6 lists the animal experimental combinations of various anti-tumor agents and ointments from different treatment groups, as well as the corresponding experimental results (where the value in the control rate column=the incidence rate of hand-foot syndrome in the blank group−the incidence rate of hand-foot syndrome in the treatment group).

The test system of test [2] is hand-foot syndrome induced by anti-tumor agents. Briefly: Prevention of hand-foot syndrome induced by anti-tumor agents in rats, NO-NSAID ointment on hind paws (Table 2-2). It is filed as in vivo, SD rats. The note with it: Rattus norvegicus, topical, 120 h, Sorafenib 80 mg/kg once a day, Days 5, read-out: Control rate. The text has this:
A rat animal model was constructed, and the anti-tumor agents shown in Table 2-2 were respectively administered to 8-week-old female SD rats by daily oral gavage. […] Therefore, rats serve as an excellent animal model for simulating side effects (such as hand-foot syndrome) caused by anti-tumor agents.
After the rats (about 200 g) were fed and adapted for one week, they were divided into a NO-NSAID group and a control group, with 10 rats in each group, and a gavage administration test was conducted. The various anti-tumor agents were dissolve in a mixed solution of Cremophor EL:ethanol=1:1. The anti-tumor agent solution were diluted with PBS to the required concentration (about 3 times with PBS solution) before gavage administration. After gavage, an ointment containing NO-NSAID was applied to the hind paws of the rats, while the control group was applied with a blank ointment. After application, the rats were placed in a fixed cylinder for 4 hours. After 4 hours, the rats were released and the residual ointment was wiped off with clean water, then the rats were returned to the cage. The gavage frequency of inhibitors was shown in Table 2-2, and NO-NSAID was only applied once a day. The gavage and application operations were repeated daily until the end of the experiment.
Table 2-2 lists the animal experimental combinations of various anti-tumor agents and NO-NSAID ointments, as well as the corresponding experimental results (wherein the value in the control rate column=the hand-foot syndrome incidence rate in the blank group−the hand-foot syndrome incidence rate in the treatment group).

A further test has as its system HUVEC cells. Briefly: CCK-8 cell viability: alleviation of proliferative toxicity of anti-tumor agents on HUVEC cells (Tables 7-1, 7-2). It is filed as cell-based. The settings on record: Homo sapiens, 24 h, NO-NSAID 100 μM, percentage increase in viable cells vs anti-tumor agent alone, read-out: Response rate % (average). The protocol: The cultured HUVEC cells were digested the suspended, counted, and seed into a 96-well plate with 5,000-10,000 cells per well. The wells are divided into the following groups: blank control group, anti-tumor agent group, anti-tumor agent+NO-NSAID group, anti-tumor agent solvent group, NO-NSAID control group. Wherein each well of each group contained a basic medium, and the final liquid volume contained in each well was about 100 μL. The grouping situation was as follows: • 1) Blank control group: no solution was added except normally replacing the medium; • 2) Anti-tumor agent group: added the anti-tumor agent solution (the final concentration was shown in Table 7-1 and Table 7-2, the solvent of the anti-tumor agent solution was DMSO); • 3) Anti-tumor agent+NO-NSAID group: added the anti-tumor agent solution and the NO-NSAID solution (the final concentrations of anti-tumor agent and NO-NSAID were shown in Table 7-1 and Table 7-2, and according to the solubility of NO-NSAID, the solvent of NO-NSAID solution was selected as ethanol or sterile water, and minor volume differences in each group were adjusted by added the corresponding solvent); • 4) Anti-tumor agent solvent group: an equal volume of DMSO as contained in the corresponding anti-tumor agent solution in Group 2) was added; • 5) NO-NSAID control group: the same volume and type of solvent (for example, ethanol or sterile water) corresponding to the NO-NSAID contained in group 3) was added.
The anti-tumor agent solvent group was not involved in data processing and was only used as a reference for evaluating experimental system error. The NO-NSAID solvent control group was used for data correction to eliminate the influence of the solvent on the results.
After culturing for 24-48 hours, the Cell Counting Kit-8 (CCK-8) detection kit (C0037, Shanghai Beyotime Biotechnology Co., Ltd., Beyotime Biotechnology) was used to determine the cell viability. This allows for the calculation of the proliferative toxicity of anti-tumor agent on cell and the mitigating effect of NO-NSAID on proliferative toxicity. The results were statistically analyzed and plotted using GraphPad Prism 6.0 software and t test.

Turning to `CC(=O)Oc1ccccc1C(=O)O` [Acetylsalicylic acid], the Control rate in test [1] (ointment 1.00% wt) stood at 14.29%.
With `COc1ccc2cc(C(C)C(=O)OCC(CO[N+](=O)O)C[N+](=O)[O-])ccc2c1` (centres unmarked) [Compound A9], the responders at 1 % in test [2] (ointment 1% wt) was determined as 28.6%. In test [2] (ointment 5% wt), the responders at 5 % was 33.3%. Also, the activation at 100 µM with HUVEC cells (Afatinib (10 μM)) is 32%; in the test on HUVEC cells (Anlotinib (5 μM)), 58%; with HUVEC cells (Apatinib (10 μM)) it was 62%; in the test with HUVEC cells (Axitinib (10 μM)) it was 45%; in the test on HUVEC cells (Cabozantinib (5 μM)), 0%; with HUVEC cells (Dabrafenib (10 μM)), 35%. For the same compound, the activation at 100 µM worked out at 39% in the test on HUVEC cells (Dacomitinib (5 μM)); 15% with HUVEC cells (Encorafenib (5 μM)); 42% in the test on HUVEC cells (Erdafitinib (10 μM)); 7% with HUVEC cells (Everolimus (5 μM)); 33% in the test with HUVEC cells (Famitinib (5 μM)); 56% in the test on HUVEC cells (Fruquintinib (10 μM)). In addition, the activation at 100 µM in the test with HUVEC cells (Gefitinib (10 μM)) amounted to 40%; in the test on HUVEC cells (Infigratinib (15 μM)), 29%; with HUVEC cells (Lapatinib (5 μM)) it was 40%; with HUVEC cells (Lenvatinib (10 μM)), 43%; in the test with HUVEC cells (Olmutinib (10 μM)), 42%; with HUVEC cells (Regorafenib (5 μM)), 40%. Further, the activation at 100 µM in the test with HUVEC cells (Selumetinib (5 μM)) worked out at 36%; in the test on HUVEC cells (Sorafenib (5 μM)) it was 48%; in the test with HUVEC cells (Sunitinib (5 μM)) it was 16%; in the test on HUVEC cells (Vemurafenib (5 μM)) it was 39%.
In the case of `CC(C(=O)OCC(CO[N+](=O)[O-])O[N+](=O)[O-])c1ccc(-c2ccccc2)c(F)c1` (centres unmarked) [Compound A10], the activation at 100 µM was 56% in the test with HUVEC cells (Afatinib (10 μM)); 27% with HUVEC cells (Anlotinib (5 μM)); 58% with HUVEC cells (Apatinib (10 μM)); -7% in the test with HUVEC cells (Axitinib (10 μM)); 49% in the test on HUVEC cells (Cabozantinib (5 μM)); 42% in the test with HUVEC cells (Dabrafenib (10 μM)). Further, the activation at 100 µM in the test on HUVEC cells (Dacomitinib (5 μM)) was determined as 37%; in the test on HUVEC cells (Encorafenib (5 μM)) it was 33%; in the test with HUVEC cells (Erdafitinib (10 μM)), 23%; in the test with HUVEC cells (Everolimus (5 μM)), 21%; in the test with HUVEC cells (Famitinib (5 μM)) it was 49%; in the test on HUVEC cells (Fruquintinib (10 μM)) it was 59%. Also, the activation at 100 µM in the test with HUVEC cells (Gefitinib (10 μM)) was found to be 40%; in the test on HUVEC cells (Infigratinib (15 μM)) it was 32%; with HUVEC cells (Lapatinib (5 μM)), 32%; with HUVEC cells (Lenvatinib (10 μM)), 57%; with HUVEC cells (Olmutinib (10 μM)), 48%; in the test on HUVEC cells (Regorafenib (5 μM)), 48%. In addition, the activation at 100 µM stood at 46% in the test with HUVEC cells (Selumetinib (5 μM)), 13% in the test on HUVEC cells (Sorafenib (5 μM)), 21% with HUVEC cells (Sunitinib (5 μM)) and 63% in the test with HUVEC cells (Vemurafenib (5 μM)).
For `CC(C)Cc1ccc(C(C)C(=O)O)cc1` (centres unmarked) [Ibuprofen], the Control rate in test [1] (ointment 2.00% wt) amounted to 0%.
Consider `COc1ccc2cc([C@H](C)C(=O)O)ccc2c1` [Naproxen], for which, in test [1] (ointment 2.50% wt), the Control rate is reported as 16.67%.
For the compound `O=[N+]([O-])OCC(CO[N+](=O)[O-])O[N+](=O)[O-]` [Nitroglycerin], the Control rate in test [1] (ointment 0.20% wt) is listed as 60%.
